Values quoted from earlier work in PMC2923042 (Journal of chemical information and modeling, 2008).

Test system: catL
Details: extrapolated from 63% inhibition at 10^-7 M; ref Tsuge et al.[15]

In the case of `CN(C)C(=O)[C@H](Cc1ccccc1)NC(=O)[C@H]1O[C@@H]1C(=O)NCCc1ccccn1` [CLIK-148], the IC50 is listed as < 100 nM.
